Assay results taken from patent publication US20260193268A1, “TRICYCLIC PI3Ka INHIBITOR, PREPARATION METHOD THEREFOR, AND PHARMACEUTICAL USE THEREOF” (WIGEN BIOMEDICINE TECHNOLOGY (SHANGHAI) CO., LTD., priority 2022, published 2026).
Where two headings read alike, the source gives them in different places.

Key:
PI3Kγ = PI3Kγ (Homo sapiens, UniProt P48736); assay: ADP-Glo kinase assay, in vitro inhibition of PI3Kγ kinase activity; assay type: biochemical; conditions: 25 μM ATP, PIP2 50 μg/mL, room temperature 1 h, read-out: Inhibitory activity against PI3K kinases, PI3Kγ (IC50)
PI3Kγ, sequence (P48736 whole entry, species assumed): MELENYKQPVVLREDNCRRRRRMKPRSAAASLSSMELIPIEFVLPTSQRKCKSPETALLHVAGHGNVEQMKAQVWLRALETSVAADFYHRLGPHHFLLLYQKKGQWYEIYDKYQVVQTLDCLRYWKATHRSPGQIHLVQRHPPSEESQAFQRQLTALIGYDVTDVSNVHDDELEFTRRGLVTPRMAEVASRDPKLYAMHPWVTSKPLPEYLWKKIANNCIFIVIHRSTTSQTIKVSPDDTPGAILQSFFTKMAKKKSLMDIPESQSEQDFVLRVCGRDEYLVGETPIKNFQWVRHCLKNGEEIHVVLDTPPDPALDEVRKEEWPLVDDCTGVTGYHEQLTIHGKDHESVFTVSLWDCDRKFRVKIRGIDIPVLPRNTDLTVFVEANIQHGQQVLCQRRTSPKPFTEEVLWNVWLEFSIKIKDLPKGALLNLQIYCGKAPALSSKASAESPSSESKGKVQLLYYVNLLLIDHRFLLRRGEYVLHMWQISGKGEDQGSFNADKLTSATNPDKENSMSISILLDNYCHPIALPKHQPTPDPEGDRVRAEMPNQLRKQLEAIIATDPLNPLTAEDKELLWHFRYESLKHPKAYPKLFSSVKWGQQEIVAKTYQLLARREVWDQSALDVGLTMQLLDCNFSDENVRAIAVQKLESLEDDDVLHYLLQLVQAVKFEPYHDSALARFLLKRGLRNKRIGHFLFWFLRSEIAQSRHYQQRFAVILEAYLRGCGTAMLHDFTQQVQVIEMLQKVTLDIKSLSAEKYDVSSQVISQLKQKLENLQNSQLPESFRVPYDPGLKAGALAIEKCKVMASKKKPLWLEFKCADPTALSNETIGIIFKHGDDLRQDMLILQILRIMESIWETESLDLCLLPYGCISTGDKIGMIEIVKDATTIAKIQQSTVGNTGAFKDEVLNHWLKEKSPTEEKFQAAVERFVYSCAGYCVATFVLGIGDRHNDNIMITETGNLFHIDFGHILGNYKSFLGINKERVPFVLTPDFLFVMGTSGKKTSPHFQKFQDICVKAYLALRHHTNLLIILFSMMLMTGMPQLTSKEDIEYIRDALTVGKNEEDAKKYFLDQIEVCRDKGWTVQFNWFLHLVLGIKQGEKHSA
Protocol: (§1) Biological Example 1. Assay for In Vitro Inhibition of PI3Kα, PI3Kβ, PI3Kγ, and PI3Kδ Kinase Activity by Compounds of the Present Disclosure
(§2) The experiment was performed using the ADP-Glo Kinase Assay kit according to the instructions. The following buffer solution was prepared: 50 mM HEPES, pH 7.5, 3 mM MgCl2, 1 mM EGTA, 100 mM NaCl, 0.03% CHAPS, 2 mM DTT. Test compound samples were dissolved in DMSO, diluted 3-fold at a starting concentration, e.g., 10 μM, and added to the screening system. A DMSO control and a kinase-free control were set simultaneously. The optimal concentrations of PI3Kα, PI3Kδ, PI3Kβ, and PI3Kγ enzymes, substrate (PIP2), and ATP were prepared with buffer. The enzyme reaction system contained: buffer, 25 μM ATP, kinase substrate (PIP2, 50 μg/mL), and kinases PI3Kα (0.15 μg/mL), PI3Kδ (1.2 μg/mL), PI3Kβ (0.3 μg/mL), PI3Kγ (2.5 μg/mL), and the like. The reaction system was reacted at room temperature for 1 h. The reaction was terminated by adding a termination reagent (ADP-Glo reagent, 5 μL), and the ADP content in the system was detected using a detection reagent (Kinase Detection Reagent, 10 μL). Signal data were collected using an Envision instrument. The inhibition rate was calculated according to the following equation: % inhibition=(DMSO control signal value−sample signal value)/(DMSO control signal value−kinase-free control signal value). The IC50 values were obtained by fitting a curve using the equation: Y=Bottom+(Top−Bottom)/(1+(IC50/X)^HillSlope).

[1] = test system: HCC1954 cells (with PI3Kα H1047R mutation); assay: In vitro inhibition of HCC1954 cell proliferation (CellTiter-Lumi); assay type: cell-based; conditions: Homo sapiens, HCC1954, 144 h, HCC1954 cells, 144 h, CellTiter-Lumi
Protocol: Assay for In Vitro Inhibition of HCC1954 Cell Proliferation by Compounds of the Present Disclosure
The growth of the cells was evaluated, and the IC50 for the inhibition of cell growth by the compounds was calculated.

[2] = test system: MCF-7 cells (with PI3Kα E545K mutation); assay: In vitro inhibition of MCF-7 cell proliferation (CellTiter-Lumi); assay type: cell-based; conditions: Homo sapiens, MCF7, 144 h
Method in brief: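 Growth IC50 derived from ATP luminescence (CellTiter-Lumi) after 144 h exposure of MCF-7 cells carrying PI3Kα E545K, plated 2000 cells/well and dosed with serial dilutions one day after seeding.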

PI3Kδ = PI3Kδ (Homo sapiens, UniProt O00329); assay: ADP-Glo kinase assay, in vitro inhibition of PI3Kδ kinase activity; assay type: biochemical; conditions: 25 μM ATP, PIP2 50 μg/mL, room temperature 1 h, read-out: Inhibitory activity against PI3K kinases, PI3Kδ (IC50)
PI3Kδ, sequence (O00329 whole entry, species assumed): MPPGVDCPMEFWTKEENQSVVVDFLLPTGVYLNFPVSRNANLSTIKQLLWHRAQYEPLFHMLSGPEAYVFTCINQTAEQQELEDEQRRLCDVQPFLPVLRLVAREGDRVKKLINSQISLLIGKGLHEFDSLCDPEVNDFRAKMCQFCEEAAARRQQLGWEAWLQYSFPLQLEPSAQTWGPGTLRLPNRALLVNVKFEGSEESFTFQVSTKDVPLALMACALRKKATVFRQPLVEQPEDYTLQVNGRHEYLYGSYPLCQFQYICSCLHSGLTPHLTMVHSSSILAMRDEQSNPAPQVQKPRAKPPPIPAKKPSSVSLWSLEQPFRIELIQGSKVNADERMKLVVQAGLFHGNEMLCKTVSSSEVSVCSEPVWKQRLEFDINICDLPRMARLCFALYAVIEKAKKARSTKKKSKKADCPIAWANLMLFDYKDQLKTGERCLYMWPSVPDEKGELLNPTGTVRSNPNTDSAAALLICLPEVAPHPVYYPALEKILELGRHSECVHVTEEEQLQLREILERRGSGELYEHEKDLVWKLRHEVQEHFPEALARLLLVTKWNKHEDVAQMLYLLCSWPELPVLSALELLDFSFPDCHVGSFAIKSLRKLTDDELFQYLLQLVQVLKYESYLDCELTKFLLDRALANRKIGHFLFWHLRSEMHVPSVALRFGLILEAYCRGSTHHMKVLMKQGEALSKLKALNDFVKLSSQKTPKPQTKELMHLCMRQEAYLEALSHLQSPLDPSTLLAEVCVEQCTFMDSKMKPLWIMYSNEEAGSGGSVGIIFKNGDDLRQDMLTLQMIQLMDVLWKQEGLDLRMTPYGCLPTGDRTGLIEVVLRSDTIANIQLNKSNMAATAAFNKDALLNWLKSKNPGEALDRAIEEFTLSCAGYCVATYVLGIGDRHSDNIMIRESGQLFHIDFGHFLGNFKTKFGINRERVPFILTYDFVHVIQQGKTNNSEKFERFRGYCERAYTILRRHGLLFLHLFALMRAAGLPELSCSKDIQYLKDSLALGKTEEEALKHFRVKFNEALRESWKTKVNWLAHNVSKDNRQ
PI3Kδ, sequence (P27986 whole entry partner, species assumed): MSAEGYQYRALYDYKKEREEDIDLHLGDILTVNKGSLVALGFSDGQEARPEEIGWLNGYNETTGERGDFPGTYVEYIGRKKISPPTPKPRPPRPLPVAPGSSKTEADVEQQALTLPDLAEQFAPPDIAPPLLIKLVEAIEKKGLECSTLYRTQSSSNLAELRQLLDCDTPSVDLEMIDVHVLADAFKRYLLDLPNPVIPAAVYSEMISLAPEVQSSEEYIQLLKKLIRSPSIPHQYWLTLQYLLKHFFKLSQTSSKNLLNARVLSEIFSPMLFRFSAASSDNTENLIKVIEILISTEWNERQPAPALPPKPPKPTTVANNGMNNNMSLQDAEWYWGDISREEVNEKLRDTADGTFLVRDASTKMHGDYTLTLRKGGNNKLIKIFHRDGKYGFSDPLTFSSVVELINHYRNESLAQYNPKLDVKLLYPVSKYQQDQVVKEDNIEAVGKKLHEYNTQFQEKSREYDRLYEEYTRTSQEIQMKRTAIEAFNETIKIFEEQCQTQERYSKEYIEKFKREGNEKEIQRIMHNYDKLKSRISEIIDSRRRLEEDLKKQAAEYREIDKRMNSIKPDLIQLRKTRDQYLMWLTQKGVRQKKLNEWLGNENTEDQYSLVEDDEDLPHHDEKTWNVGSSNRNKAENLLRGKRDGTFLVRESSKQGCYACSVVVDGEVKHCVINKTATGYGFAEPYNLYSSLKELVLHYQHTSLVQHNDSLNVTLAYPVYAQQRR
Protocol: as §1, §2

PI3Kα = PI3Kα (Homo sapiens, UniProt P42336); assay: ADP-Glo kinase assay, in vitro inhibition of PI3Kα kinase activity; assay type: biochemical; conditions: 25 μM ATP, PIP2 50 μg/mL, room temperature 1 h, read-out: Inhibitory activity against PI3K kinases, PI3Kα (IC50)
PI3Kα, sequence (P42336 whole entry): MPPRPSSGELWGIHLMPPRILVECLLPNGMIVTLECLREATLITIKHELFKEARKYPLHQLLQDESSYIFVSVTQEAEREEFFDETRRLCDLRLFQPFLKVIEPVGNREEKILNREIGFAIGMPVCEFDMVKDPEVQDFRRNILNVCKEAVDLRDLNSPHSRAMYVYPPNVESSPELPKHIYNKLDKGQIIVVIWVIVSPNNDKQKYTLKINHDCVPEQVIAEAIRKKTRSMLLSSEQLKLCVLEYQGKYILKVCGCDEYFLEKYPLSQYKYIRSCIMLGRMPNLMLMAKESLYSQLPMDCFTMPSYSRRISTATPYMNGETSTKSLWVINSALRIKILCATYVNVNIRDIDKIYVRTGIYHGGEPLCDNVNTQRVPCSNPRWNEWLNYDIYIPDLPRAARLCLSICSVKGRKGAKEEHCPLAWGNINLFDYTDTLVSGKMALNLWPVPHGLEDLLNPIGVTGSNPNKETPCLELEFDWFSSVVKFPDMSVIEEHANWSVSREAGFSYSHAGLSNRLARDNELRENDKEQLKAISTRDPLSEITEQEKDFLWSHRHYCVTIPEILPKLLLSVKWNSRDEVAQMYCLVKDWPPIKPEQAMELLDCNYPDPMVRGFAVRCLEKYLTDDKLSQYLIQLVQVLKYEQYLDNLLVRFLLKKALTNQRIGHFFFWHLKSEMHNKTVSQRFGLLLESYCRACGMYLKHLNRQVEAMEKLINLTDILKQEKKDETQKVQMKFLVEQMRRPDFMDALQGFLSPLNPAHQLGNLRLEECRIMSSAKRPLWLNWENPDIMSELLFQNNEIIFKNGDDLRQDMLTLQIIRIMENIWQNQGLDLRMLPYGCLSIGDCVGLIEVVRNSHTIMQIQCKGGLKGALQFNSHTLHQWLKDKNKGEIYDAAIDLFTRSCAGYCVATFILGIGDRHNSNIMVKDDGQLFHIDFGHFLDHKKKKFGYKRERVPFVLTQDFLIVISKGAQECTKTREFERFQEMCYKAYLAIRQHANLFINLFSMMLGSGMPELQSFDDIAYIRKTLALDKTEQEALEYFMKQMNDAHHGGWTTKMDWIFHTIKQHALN
PI3Kα, sequence (P27986 whole entry partner): as the sequence (P27986 whole entry partner, species assumed) above
Protocol: as §1, §2

PI3Kβ = PI3Kβ (Homo sapiens, UniProt P42338); assay: ADP-Glo kinase assay, in vitro inhibition of PI3Kβ kinase activity; assay type: biochemical; conditions: 25 μM ATP, PIP2 50 μg/mL, room temperature 1 h, read-out: Inhibitory activity against PI3K kinases, PI3Kβ (IC50)
PI3Kβ, sequence (P42338 whole entry, species assumed): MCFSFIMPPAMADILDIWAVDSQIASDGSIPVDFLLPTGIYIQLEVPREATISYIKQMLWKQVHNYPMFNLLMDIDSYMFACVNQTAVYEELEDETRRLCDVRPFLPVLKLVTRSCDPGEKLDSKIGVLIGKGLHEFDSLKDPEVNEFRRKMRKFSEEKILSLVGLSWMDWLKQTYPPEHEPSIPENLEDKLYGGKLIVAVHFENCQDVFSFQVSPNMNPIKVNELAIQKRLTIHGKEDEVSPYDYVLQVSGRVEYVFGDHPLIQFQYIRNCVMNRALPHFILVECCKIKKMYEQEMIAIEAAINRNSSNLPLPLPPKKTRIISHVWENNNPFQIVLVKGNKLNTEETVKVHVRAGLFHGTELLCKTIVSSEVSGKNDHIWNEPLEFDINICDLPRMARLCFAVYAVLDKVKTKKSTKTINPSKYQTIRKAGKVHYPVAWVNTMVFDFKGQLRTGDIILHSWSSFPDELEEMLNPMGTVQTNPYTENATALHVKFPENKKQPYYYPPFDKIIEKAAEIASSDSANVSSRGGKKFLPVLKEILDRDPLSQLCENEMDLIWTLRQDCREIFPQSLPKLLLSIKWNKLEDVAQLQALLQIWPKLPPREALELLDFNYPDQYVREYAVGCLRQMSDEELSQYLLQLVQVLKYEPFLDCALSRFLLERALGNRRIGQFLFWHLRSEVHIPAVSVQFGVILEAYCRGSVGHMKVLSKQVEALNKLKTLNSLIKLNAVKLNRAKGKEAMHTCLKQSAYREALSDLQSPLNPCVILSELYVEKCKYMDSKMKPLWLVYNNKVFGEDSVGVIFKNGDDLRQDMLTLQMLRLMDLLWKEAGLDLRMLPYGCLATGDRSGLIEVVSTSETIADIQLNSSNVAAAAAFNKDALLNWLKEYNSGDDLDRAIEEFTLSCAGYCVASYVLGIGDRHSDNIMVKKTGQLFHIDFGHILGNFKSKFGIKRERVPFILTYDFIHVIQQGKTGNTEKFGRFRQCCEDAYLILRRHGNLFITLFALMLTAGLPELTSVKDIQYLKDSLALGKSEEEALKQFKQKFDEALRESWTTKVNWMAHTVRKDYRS
PI3Kβ, sequence (P27986 whole entry partner, species assumed): as the sequence (P27986 whole entry partner, species assumed) above
Protocol: as §1, §2

[3] = numeric values, read-out: Inhibitory activity against HCC1954 cells (IC50)
[4] = numeric values, read-out: Inhibitory activity against MCF-7 cells (IC50)
[5] = class symbols, read-out: Inhibitory activity against HCC1954 cells (IC50), class symbols
[6] = class symbols, read-out: Inhibitory activity against MCF-7 cells (IC50), class symbols

Row | IC50 [1, 3] [nM] | IC50 [2, 4] [nM] | IC50 [1, 5] [nM] | IC50 [2, 6] [nM] | SMILES | further results
1 | 9 | 0.36 |  |  | C=CC(=O)Nc1ccc(N2CC(N3CCN(c4ccc5c(c4)-c4nc(N6C(=O)OC[C@H]6C(F)F)cn4CCO5)CC3)C2)cc1 [Compound 27] | IC50 (PI3Kγ): 26 nM; IC50 (PI3Kδ): 76 nM; IC50 (PI3Kα): 0.21 nM; IC50 (PI3Kβ): 2920 nM
2 | 670 | 35 |  |  | C=CC(=O)N1CCC(N2CC(CN3CCN(c4ccc5c(c4)-c4nc(N6C(=O)OC[C@H]6C(F)F)cn4CCO5)CC3)C2)CC1 [Compound 5] | IC50 (PI3Kγ): 1200 nM; IC50 (PI3Kδ): 117 nM; IC50 (PI3Kα): 50 nM; IC50 (PI3Kβ): 314 nM
3 | 81 | 16 |  |  | C=CC(=O)N1CC(N2CCC(CN3CCN(c4ccc5c(c4)-c4nc(N6C(=O)OC[C@H]6C(F)F)cn4CCO5)CC3)CC2)C1 [Compound 17] | IC50 (PI3Kγ): 317 nM; IC50 (PI3Kδ): 92 nM; IC50 (PI3Kα): 11 nM; IC50 (PI3Kβ): 314 nM
4 | > 1000 | 146 |  |  | C=CC(=O)N1CCC(N2CCC(N3CCN(c4ccc5c(c4)-c4nc(N6C(=O)OC[C@H]6C(F)F)cn4CCO5)CC3)CC2)CC1 [Compound 10] | 
5 | 16 | 1.5 |  |  | C=CC(=O)Nc1cc(N2CC(N3CCN(c4ccc5c(c4)-c4nc(N6C(=O)OC[C@H]6C(F)F)cn4CCO5)CC3)C2)n(C)n1 [Compound 135] | 
6 | 663 | 99 |  |  | C=CC(=O)N1CCC(C(=O)NCC(=O)N2CCN(c3ccc4c(c3)-c3nc(N5C(=O)OC[C@H]5C(F)F)cn3CCO4)CC2)CC1 [Compound 6] | 
7 | > 1000 | 143 |  |  | C=CC(=O)N1CC[C@H](CN2CC3(CCN(c4ccc5c(c4)-c4nc(N6C(=O)OC[C@H]6C(F)F)cn4CCO5)CC3)C2)C1 [Compound 22] | 
8 | 128 | 14 |  |  | C=CC(=O)N1CCN(CCCC(=O)N2CCN(c3ccc4c(c3)-c3nc(N5C(=O)OC[C@H]5C(F)F)cn3CCO4)CC2)CC1 [Compound 15] | 
9 | 28 | 1.8 |  |  | C=CC(=O)N1CCCc2cc(N3CC(N4CCN(c5ccc6c(c5)-c5nc(N7C(=O)OC[C@H]7C(F)F)cn5CCO6)CC4)C3)ccc21 [Compound 159] | 
10 | 75 | 13 |  |  | C=CC(=O)Nc1ccc(N2CCC(N3CCN(c4ccc5c(c4)-c4nc(N6C(=O)OC[C@H]6C(F)F)cn4CCO5)CC3)C2)cc1 (single isomer, unassigned) [Compound 29] | 
11 | 4.6 | 0.3 |  |  | C=CC(=O)Nc1ccc(N2CC(N3CCN(c4ccc5c(c4)-c4nc(N6C(=O)OC[C@H]6C(F)F)cn4CCO5)CC3)C2)c(Cl)c1 [Compound 195] | 
12 | 6 | 0.3 |  |  | C=CC(=O)Nc1cc(C)c(N2CC(N3CCN(c4ccc5c(c4)-c4nc(N6C(=O)OC[C@H]6C(F)F)cn4CCO5)CC3)C2)cn1 [Compound 140] | 

More lines, now with the values behind:

Row | SMILES | IC50 [1, 3] [nM] | IC50 [2, 4] [nM] | IC50 [1, 5] [nM] | IC50 [2, 6] [nM] | further results
13 | CN(C)C/C=C/C(=O)Nc1ccc(N2CC(N3CCN(c4ccc5c(c4)-c4nc(N6C(=O)OC[C@H]6C(F)F)cn4CCO5)CC3)C2)cc1 [Compound 96] | 26 | 2.5 |  |  | IC50 (PI3Kγ): 223 nM; IC50 (PI3Kδ): 475 nM; IC50 (PI3Kα): 1.33 nM; IC50 (PI3Kβ): 3160 nM
14 | C=CC(=O)Nc1ccc(N2CC[C@H](N3CCN(c4ccc5c(c4)-c4nc(N6C(=O)OC[C@H]6C(F)F)cn4CCO5)CC3)C2)cc1 (single isomer, unassigned) [Compound 29] |  |  |  |  | IC50 (PI3Kγ): 38 nM; IC50 (PI3Kδ): 49 nM; IC50 (PI3Kα): 1.18 nM; IC50 (PI3Kβ): 1260 nM
15 | CNC(C)(C)C=C(C#N)C(=O)Nc1ccc(N2CC(N3CCN(c4ccc5c(c4)-c4nc(N6C(=O)OC[C@H]6C(F)F)cn4CCO5)CC3)C2)nn1 [Compound 299] |  |  | < 50 | < 50 | 
16 | C=CC(=O)Nc1ccc(N2CC(N3CCN(c4ccc5c(c4)-c4nc(-c6nc(C)nn6C(C)C)cn4CCO5)CC3)C2)c(F)c1 [Compound 376] |  |  | < 50 | < 50 | 
17 | C=CC(=O)Nc1ccc(N2CC(N3CCN(c4ccc5c(c4)-c4nc(N6C(=O)OC[C@H]6C(F)F)cn4CCO5)CC3)C2)c(C)c1 [Compound 129] | 6.9 | 0.3 |  |  | 
18 | Cc1nc(-c2cn3c(n2)-c2cc(N4CCN(C5CN(c6ccc(NC(=O)C(C#N)=CC(C)(C)N(C)C7COC7)cc6)C5)CC4)ccc2OCC3)n(C(C)C)n1 [Compound 339] |  |  | < 50 | < 50 | 
19 | CC(C)(C=C(C#N)C(=O)Nc1ccc(N2CC(N3CCN(c4ccc5c(c4)-c4nc(N6C(=O)OC[C@H]6C(F)F)cn4CCO5)CC3)C2)cc1)N1CC2(CCOCC2)C1 [Compound 313] |  |  | < 50 | < 50 | 
20 | CC(C)(C=C(C#N)C(=O)Nc1ccc(N2CC(N3CCN(c4ccc5c(c4)-c4nc(N6C(=O)OC[C@H]6C(F)F)cn4CCO5)CC3)C2)c(F)c1)NC1(C)COC1 [Compound 384] |  |  | < 50 | < 50 | 
21 | CC(C)(C)OC(=O)NC1(C=C(C#N)C(=O)Nc2ccc(N3CC(N4CCN(c5ccc6c(c5)-c5nc(N7C(=O)OC[C@H]7C(F)F)cn5CCO6)CC4)C3)cc2)CC1 [Compound 326] |  |  | < 50 | < 50 | 
22 | CNC(C)(C)C=C(C#N)C(=O)Nc1ccc(N2CC(N3CCN(c4ccc5c(c4)-c4nc(N6C(=O)OC[C@H]6C(F)F)cn4CCO5)CC3)C2)c(F)c1 [Compound 225] |  |  | < 50 | < 50 | 
23 | CC(C)OC(=O)OCOP(=O)(OCOC(=O)OC(C)C)OCOC(C)(C)C=C(C#N)C(=O)Nc1ccc(N2CC(N3CCN(c4ccc5c(c4)-c4nc(N6C(=O)OC[C@H]6C(F)F)cn4CCO5)CC3)C2)cc1 [Compound 344] |  |  | < 50 | < 50 | 
24 | CC(C)(N)/C=C/C(=O)Nc1ccc(N2CC(N3CCN(c4ccc5c(c4)-c4nc(N6C(=O)OC[C@H]6C(F)F)cn4CCO5)CC3)C2)cc1 [Compound 276] |  |  | < 50 | < 50 | 
25 | CN(C1COC1)C(C)(C)C=C(C#N)C(=O)Nc1ccc(N2CC(N3CCN(c4ccc5c(c4)-c4nc(N6C(=O)OC[C@H]6C(F)F)cn4CCO5)CC3)C2)cn1 [Compound 289] |  |  | < 50 | < 50 | 
26 | C=CC(=O)Nc1ccc(N2CC(N3CCN(c4ccc5c(c4)-c4nc(N6C(=O)OC[C@H]6C(F)F)cn4CCO5)CC3)C2)c(OC)c1 [Compound 280] | 3.4 | 0.2 |  |  | 
27 | C=CC(=O)Nc1ccc(N2CCN(CC#Cc3ccc4c(c3)-c3nc(N5C(=O)OC[C@H]5C(F)F)cn3CCO4)CC2)cc1 [Compound 182] |  |  | 50 to 100 | 50 to 100 | 
28 | CC=C(C#N)C(=O)Nc1ccc(N2CC(N3CCN(c4ccc5c(c4)-c4nc(N6C(=O)OC[C@H]6C(F)F)cn4CCO5)CC3)C2)c(F)c1 [Compound 236] |  |  | < 50 | < 50 | 
